According to paper PMC3022839 (BMC Medical Imaging, 2011):

Legend:
[1] = system: P-glycoprotein (P-gp) at the blood-brain barrier; assay: Population mixed effects modelling (NONMEM) of (R)-[11C]verapamil brain kinetics
Protocol: Rats from the different groups were randomly assigned to experimental days and scanned in pairs for 60 minutes using a double LSO/LYSO layer High Resolution Research Tomograph (HRRT, CTI/Siemens, Knoxville, TN, USA) [37]. […] The other half was treated only with vehicle (3 mL/kg). […] The purpose of the ^18FDG scan was to outline the brain to aid in defining regions of interest. The HRRT scanner acquires data in list mode, enabling post-scan definition of the frame sequence. The final frame sequence used for analysis was 6 × 10, 2 × 30, 3 × 60, 2 × 150, 2 × 300 and 4 × 600 seconds. Studies were reconstructed using an iterative 3 D ordered-subsets weighted least-squares (3D-OSWLS) method with 8 iterations and 16 subsets [39]. No post-reconstruction filtering was applied. […]
PET image data were analyzed using the freely available software package Amide 0.8.22 [44]. […] To correct for an intravascular contribution, radioactivity measured in whole blood was exponentially interpolated to obtain blood radioactivity values at each mid frame time point and then subtracted from the brain time-activity curves, assuming that cerebral blood volume was 3% of the total brain volume [45]. […]
(§1) The NONMEM model was constructed in two steps. […] One, two and three compartment models were evaluated. […] Again, one and two compartment models were evaluated, and treatment, rat group and animal weight were included as covariates. […]

P-glycoprotein (P-gp) = assay: P-gp expression in brain capillaries (immunohistochemistry, C219); type: in vivo, rat; details: kainate vs saline treated rats, 7 days after treatment; cortex and hippocampus CA1
Sprague-Dawley rats = assay: Kainate-induced status epilepticus; type: in vivo, rat
Protocol: Adult male Sprague-Dawley rats (n = 50, Harlan, Horst, The Netherlands) weighing 200-224 g at arrival were housed in groups of 5-6 per cage until treatment. They were kept at a constant temperature of 21°C and at a 12 h light/dark cycle, in which lights were switched on at 8:00 AM. Animals had unrestricted access to food (Teklad Global 16% Protein Rodent Diet, Harlan, Madison, WI, USA) and water. Animal procedures were performed in accordance with Dutch laws on animal experimentation. All experiments were approved by the Ethics Committee for Animal Experiments of Leiden University (approval number UDEC08178). After approximately one week of habituation and 7 days prior to PET investigation rats were treated with either kainic acid (5 mg/mL) or saline. Kainic acid was administered repeatedly as a 10 mg/kg (2 mL/kg) i.p. injection followed by 5 mg/kg (1 mL/kg) i.p. every 30-60 minutes until stage IV seizures according to Racine's scale occurred, or when a total amount of 30 mg/kg kainic acid was reached. Control rats were treated with 3 saline i.p. injections using the same volumes as for the kainate treated rats, 30 minutes apart. After treatment rats were housed individually.

[2] = Tariquidar plasma concentration (LC/MS); type: in vivo; details: Sprague-Dawley, rat, intravenous, 15 mg/kg, 2 hours after tariquidar 15 mg/kg i.v., mean ± s.d.
[3] = Population mixed effects modelling (NONMEM) of (R)-[11C]verapamil plasma kinetics; details: tariquidar 15 mg/kg i.v. co-administration vs vehicle
Description: Plasma time-activity curves were corrected for tracer metabolism before they were used as input for kinetic modelling. […] Two types of corrections were used: (1) complete metabolite correction and (2) correction only for polar metabolites. […] Mathematically, this is described by the following equations:
Nonlinear mixed effects modelling, using NONMEM VI (GloboMax LLC, Hanover, MD, USA), provide a tool for analyzing repeated measurements data in which the relationship between the explanatory and response variables can be modeled as a single function, allowing the parameters to differ between individuals. In addition, these techniques recognize that the variability associated with the response variable for a given individual may depend on the response value in a way that is similar for all individuals. This could be due, for example, to properties associated with measurement error.
Data from all rats was processed simultaneously. The subroutine ADVAN 9 and first-order conditional estimation with interaction were used throughout the modelling procedure. […]
as §1

18FDG brain uptake (PET) = type: in vivo, rat; details: 60 minutes after injection
Description: No post-reconstruction filtering was applied.

In the case of `C=C(C)[C@H]1CN[C@H](C(=O)O)[C@H]1CC(=O)O` [kainic acid], the “Covariate kainate on Vbr1 of (R)-[11C]verapamil (fractional difference)” value ([1]; kainate vs saline treated rats, 7 days after treatment) is reported as 1.32 (0.416), the “increase of Vbr1 of (R)-[11C]verapamil in kainate treated compared to saline treated rats” value ([1]; population model, rat group as covariate, 7 days after kainate) is reported as 32% and the “P-gp expression, P-gp labelled surface area” value (P-glycoprotein (P-gp)) is reported as “trend towards higher P-gp expression”. For the same molecule, the “P-gp expression, optical density” value (P-glycoprotein (P-gp)) was “no difference”, the duration of seizures (Sprague-Dawley rats; after kainic acid i.p.) was 1 to 2 h and the “seizure stage reached (Racine's scale)” value (Sprague-Dawley rats; kainic acid i.p. 10 mg/kg then 5 mg/kg every 30-60 minutes, all rats, except one) was “stage IV-V seizures”. The “rats that died as a result of treatment” value (Sprague-Dawley rats; kainic acid i.p., up to 30 mg/kg) was “Four” and the “time to status epilepticus after the last injection” value (Sprague-Dawley rats; typically 3 injections, i.e. 20 mg/kg i.p.) was ≤ 20 min.

With `COc1cc2c(cc1OC)CN(CCc1ccc(NC(=O)c3cc(OC)c(OC)cc3NC(=O)c3cnc4ccccc4c3)cc1)CC2` [tariquidar, Tariquidar] the concentration at 2 h ([2]; kainate group) was 1600 ± 300 ng/mL, the concentration at 2 h ([2]; saline group) was 1800 ± 300 ng/mL and the “Covariate tariquidar on Vp1 of (R)-[11C]verapamil (fractional difference)” value [3] was 1.20 (0.119).

For `O=C[C@H]([18F])[C@@H](O)[C@H](O)[C@H](O)CO` [^18FDG], the “18FDG brain uptake, SUV” value (18FDG brain uptake (PET); kainate treated rats, mean ± s.d.) was 2.0 ± 0.4, the “18FDG brain uptake, SUV” value (18FDG brain uptake (PET); saline treated rats, mean ± s.d.) was 1.6 ± 0.3 and the “18FDG brain uptake, SUV” value (18FDG brain uptake (PET); with or without tariquidar co-administration (both groups)) was 1.8 ± 0.4.
